From patent publication US4931391A, “Method for preservation of nitrile hydration activity” (Mitsubishi Rayon Kabushiki Kaisha, priority 1986, dated 1990)
Read-outs that look alike come from different tables or passages of the source.

Columns and labels:
[1] = molecular target: T1, (Rhodococcus erythropolis, UniProt P13448+P13449); assay: Preservation of nitrile hydration activity of cell extract, Brevibacterium CBS-717; assay type: biochemical; conditions: 48 h; Brevibacterium CBS-717 extract; 1 ml + 1 ml buffer pH 6.5 containing 10 g/l stabilizer; 2 days at 20° C.; read-out: % Residual Activity
T1 construct: whereby a cell extract was obtained; endogenous in cells; host or cells: Brevibacterium CBS-717, French press cell extract
Procedure: In each of the following experimental examples, 0.1 ml of an enzyme solution was charged into a beaker containing 9.9 ml of phosphate buffer and irradiated with a 100-W EYE LAMP (supplied by Toshiba, Japan) positioned at a distance of 50 cm for 30 minutes in a bath maintained at 10° C. to induce the enzyme activity to the fullest extent. The resulting solution was then added to 10 ml of M/20 phosphate buffer (pH 7.7) containing 5.0% by weight of acrylonitrile to cause reaction at 10° C. for 10 minutes. The nitrile hydration activity of the test enzyme solution was determined by measuring the quantity of acrylamide produced by gas chromatography, the capability of producing 1μ mole of acrylamide per ml of the enzyme solution per minute being designated as 1 unit (U). […]
(§1) The cell extract thus obtained was divided into two aliquots, 1 ml of one aliquot being mixed with 1 ml of M/10 phosphate buffer (pH 6.5) containing 10 g/l of ammonium isobutyrate, and 1 ml of the other aliquot being mixed with 1 ml of M/10 phosphate buffer (pH 6.5) as a comparison example. Both solutions were left standing for 2 days at 20° C., and the nitrile hydration activity levels were measured before and after each of the solutions were left standing to calculate % residual activity.

[2] = molecular target: T2, (Rhodococcus erythropolis, UniProt P13448+P13449); assay: Preservation of nitrile hydration activity of cell extract (crude enzyme solution), stabilizer added before crushing cells; assay type: biochemical, Corynebacterium strain N-774(FERM P-4446); conditions: left standing 2 days at 20° C.; buffer containing 10 g/l stabilizer mixed 1:1, pH 6.5
T2 sequence (P13448 2-207 limits assumed): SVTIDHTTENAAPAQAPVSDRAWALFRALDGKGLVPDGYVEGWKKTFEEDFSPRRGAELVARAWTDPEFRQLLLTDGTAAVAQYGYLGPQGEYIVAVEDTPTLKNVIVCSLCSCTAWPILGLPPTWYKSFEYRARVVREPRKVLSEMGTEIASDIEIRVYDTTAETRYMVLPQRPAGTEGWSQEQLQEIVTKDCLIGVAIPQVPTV
T2 sequence (P13449 1-212): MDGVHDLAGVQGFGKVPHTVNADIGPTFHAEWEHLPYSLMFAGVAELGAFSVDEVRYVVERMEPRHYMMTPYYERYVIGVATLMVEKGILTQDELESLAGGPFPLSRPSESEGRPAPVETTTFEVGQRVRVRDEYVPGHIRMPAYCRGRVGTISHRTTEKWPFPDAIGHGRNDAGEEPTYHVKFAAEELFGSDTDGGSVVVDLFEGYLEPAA
Procedure: (§2) A culture medium comprising 10 g/l of glucose, 5 g/l of peptone, 3 g/l of yeast extract, and 3 g/l of malt extract was adjusted to a pH of 7.2, and 100 ml of the resulting culture medium was sterilized in a 500-ml Erlenmeyer flask.
(§3) After cooling, the sterilized culture medium was inoculated with 1 ml of a culture fluid obtained by precultivating strain N-774(FERM P-4446) of the genus Corynebacterium in the same culture medium as is described above for 2 days, and cultivation was carried out aerobically at 30° C. for 2 days.
(§4) Cells were separated from the culture fluid by centrifugation (3° C., 10,000 rpm, 20 minutes) and washed with a physiological saline. The washed cells were subjected to centrifugation under the same conditions and then suspended in a physiological saline to obtain a suspension of washed cells.
(§5) The residual nitrile hydration activity percent (in Table 1, as in all succeeding tables, abbreviated to % residual activity) was calculated on the basis of the data thus obtained.

[3] = molecular target: T3, nitrilase (Rhodococcus erythropolis, UniProt P13448+P13449); assay: as above; assay type: biochemical, Corynebacterium strain N-774(FERM P-4446)
T3 sequence (P13448 2-207 limits assumed): T2 sequence (P13448 2-207 limits assumed)
T3 sequence (P13449 1-212): T2 sequence (P13449 1-212)
Procedure: as §2, §3, §4, §5

[4] = tested on: nitrilase; conditions: 1 ml + 1 ml buffer pH 6.5 containing 10 g/l stabilizer, 2 days at 20° C.
Procedure: In each of the following experimental examples, 0.1 ml of an enzyme solution was charged into a beaker containing 9.9 ml of phosphate buffer and irradiated with a 100-W EYE LAMP (supplied by Toshiba, Japan) positioned at a distance of 50 cm for 30 minutes in a bath maintained at 10° C. to induce the enzyme activity to the fullest extent. The resulting solution was then added to 10 ml of M/20 phosphate buffer (pH 7.7) containing 5.0% by weight of acrylonitrile to cause reaction at 10° C. for 10 minutes. The nitrile hydration activity of the test enzyme solution was determined by measuring the quantity of acrylamide produced by gas chromatography, the capability of producing 1μ mole of acrylamide per ml of the enzyme solution per minute being designated as 1 unit (U).
Each aliquot of a suspension of cells of a genus as shown in Table 2 prepared as in Comparison Example 1 was subjected to French press treatment and centrifugation similarly as in Comparison Example 1, whereby a cell extract was obtained.
as §1

CC(C)C(=O)O.N [ammonium isobutyrate]
activity at 5000 µg/mL [1]: 89%
% Residual Activity [2]: 92%
Activity Before Being Left Standing ([3]; cell suspension mixed 1:1 with M/10 phosphate buffer pH 6.5 containing 10 g/l stabilizer, then French press): 1.3 × 10^3 U/ml
Activity After Being Left Standing ([3]; same extract after 2 days at 20° C.): 1.2 × 10^3 U/ml
% Residual Activity ([4]; Bacillus CBS-494 extract): 83%
% Residual Activity ([4]; Bacteridium CBS-496 extract): 78%
% Residual Activity ([4]; Micrococcus CBS-497 extract): 91%
% Residual Activity ([4]; Nocardia N-775 extract): 93%
